Laboratory results taken from ChEMBL document CHEMBL5113478, “7-Azaindole, 2,7-diazaindole, and 1H-pyrazole as core structures for novel anticancer agents with potential chemosensitizing properties” (Eur J Med Chem, 2022).

What was measured:
Format in all cases: functional
MCF7 [1] = experiment: Antiproliferative activity against human MCF7 cells assessed as […] cell proliferation at 10 uM incubated for 48 hrs in presence of 10 uM of CDDP by WST-1 assay relative to control
MOLT-4 [2] = experiment: Antiproliferative activity against human MOLT-4 cells assessed as […] cell proliferation at 10 uM incubated for 48 hrs in presence of 2 uM of CDDP by WST-1 assay relative to control
PANC-1 [3] = experiment: Antiproliferative activity against human PANC-1 cells assessed as […] cell proliferation at 10 uM incubated for 48 hrs by WST-1 assay relative to control
HT-29 [4] = experiment: Antiproliferative activity against human HT-29 cells assessed as […] cell proliferation at 10 uM incubated for 48 hrs by WST-1 assay relative to control
A2780 [5] = experiment: Antiproliferative activity against human A2780 cells assessed as […] cell proliferation at 10 uM incubated for 48 hrs in presence of 2 uM of CDDP by WST-1 assay relative to control
HeLa [6] = experiment: Antiproliferative activity against human HeLa cells assessed as […] cell proliferation at 10 uM incubated for 48 hrs in presence of 15 uM of CDDP by WST-1 assay relative to control
SAOS-2 [7] = experiment: Antiproliferative activity against human SAOS-2 cells assessed as […] cell proliferation at 10 uM incubated for 48 hrs in presence of 15 uM of CDDP by WST-1 assay relative to control
A549 [8] = experiment: Antiproliferative activity against human A549 cells assessed as […] cell proliferation at 10 uM incubated for 48 hrs by WST-1 assay relative to control
PANC-1 [9] = experiment: Antiproliferative activity against human PANC-1 cells assessed as […] cell proliferation at 10 uM incubated for 48 hrs in presence of 15 uM of CDDP by WST-1 assay relative to control
Jurkat [10] = experiment: Antiproliferative activity against human Jurkat cells assessed as […] cell proliferation at 10 uM incubated for 48 hrs in presence of 2 uM of CDDP by WST-1 assay relative to control
Jurkat [11] = experiment: Antiproliferative activity against human Jurkat cells assessed as […] cell proliferation at 10 uM incubated for 48 hrs by WST-1 assay relative to control
HT-29 [12] = experiment: Antiproliferative activity against human HT-29 cells assessed as […] cell proliferation at 10 uM incubated for 48 hrs in presence of 15 uM of CDDP by WST-1 assay relative to control
A549 [13] = experiment: Antiproliferative activity against human A549 cells assessed as […] cell proliferation at 10 uM incubated for 48 hrs in presence of 15 uM of CDDP by WST-1 assay relative to control
MCF7 [14] = experiment: Antiproliferative activity against human MCF7 cells assessed as […] cell proliferation at 10 uM incubated for 48 hrs by WST-1 assay relative to control
HeLa [15] = experiment: Antiproliferative activity against human HeLa cells assessed as […] cell proliferation at 10 uM incubated for 48 hrs by WST-1 assay relative to control
A2780 [16] = experiment: Antiproliferative activity against human A2780 cells assessed as […] cell proliferation at 10 uM incubated for 48 hrs by WST-1 assay relative to control
SAOS-2 [17] = experiment: Antiproliferative activity against human SAOS-2 cells assessed as […] cell proliferation at 10 uM incubated for 48 hrs by WST-1 assay relative to control
MOLT-4 [18] = experiment: Antiproliferative activity against human MOLT-4 cells assessed as […] cell proliferation at 10 uM incubated for 48 hrs by WST-1 assay relative to control

CC(C)S(=O)(=O)c1ccc(-c2cc(C(=O)Nc3ccccc3)n[nH]2)cc1
70%: Activity (MCF7 [1]) | Activity (MOLT-4 [2]) | Activity (A2780 [5]) | Activity (HeLa [6]) | Activity (SAOS-2 [7]) | Activity (PANC-1 [9]) | Activity (Jurkat [10]) | Activity (HT-29 [12]) | Activity (A549 [13])
107%: Activity (PANC-1 [3]) | Cell viability relative to control (HT-29 [4]) | Activity (A549 [8]) | Activity (Jurkat [11]) | Activity (MCF7 [14]) | Activity (HeLa [15]) | Activity (A2780 [16]) | Activity (SAOS-2 [17]) | Activity (MOLT-4 [18])

CCN(CC)c1ccc(CNC(=O)c2c[nH]c3ncc(-c4ccc(S(C)(=O)=O)cc4)cc23)cc1
76%: Activity (PANC-1 [3]) | Cell viability relative to control (HT-29 [4]) | Activity (A549 [8]) | Activity (Jurkat [11]) | Activity (MCF7 [14]) | Activity (HeLa [15]) | Activity (A2780 [16]) | Activity (SAOS-2 [17]) | Activity (MOLT-4 [18])
59%: Activity (MCF7 [1]) | Activity (MOLT-4 [2]) | Activity (A2780 [5]) | Activity (HeLa [6]) | Activity (SAOS-2 [7]) | Activity (PANC-1 [9]) | Activity (Jurkat [10]) | Activity (HT-29 [12]) | Activity (A549 [13])

CC(C)S(=O)(=O)c1ccc(-c2cc(-c3nc(-c4ccccc4)no3)n[nH]2)cc1
101%: Activity (PANC-1 [3]) | Cell viability relative to control (HT-29 [4]) | Activity (A549 [8]) | Activity (Jurkat [11]) | Activity (MCF7 [14]) | Activity (HeLa [15]) | Activity (A2780 [16]) | Activity (SAOS-2 [17]) | Activity (MOLT-4 [18])
62%: Activity (MCF7 [1]) | Activity (MOLT-4 [2]) | Activity (A2780 [5]) | Activity (HeLa [6]) | Activity (SAOS-2 [7]) | Activity (PANC-1 [9]) | Activity (Jurkat [10]) | Activity (HT-29 [12]) | Activity (A549 [13])

CC(C)S(=O)(=O)c1ccc(-c2cnc3[nH]c(C(=O)Nc4ccccc4)cc3c2)cc1
65%: Activity (MCF7 [1]) | Activity (MOLT-4 [2]) | Activity (A2780 [5]) | Activity (HeLa [6]) | Activity (SAOS-2 [7]) | Activity (PANC-1 [9]) | Activity (Jurkat [10]) | Activity (HT-29 [12]) | Activity (A549 [13])
103%: Activity (PANC-1 [3]) | Cell viability relative to control (HT-29 [4]) | Activity (A549 [8]) | Activity (Jurkat [11]) | Activity (MCF7 [14]) | Activity (HeLa [15]) | Activity (A2780 [16]) | Activity (SAOS-2 [17]) | Activity (MOLT-4 [18])

CCN(CC)c1ccc(CNC(=O)c2cc(-c3ccc(S(=O)(=O)C(C)C)cc3)[nH]n2)cc1
78%: Activity (PANC-1 [3]) | Cell viability relative to control (HT-29 [4]) | Activity (A549 [8]) | Activity (Jurkat [11]) | Activity (MCF7 [14]) | Activity (HeLa [15]) | Activity (A2780 [16]) | Activity (SAOS-2 [17]) | Activity (MOLT-4 [18])
62%: Activity (MCF7 [1]) | Activity (MOLT-4 [2]) | Activity (A2780 [5]) | Activity (HeLa [6]) | Activity (SAOS-2 [7]) | Activity (PANC-1 [9]) | Activity (Jurkat [10]) | Activity (HT-29 [12]) | Activity (A549 [13])

CCN1CCN(C2CCN(C(=O)c3c[nH]c4ncc(-c5ccc(S(=O)(=O)C(C)C)cc5)cc34)CC2)CC1
62%: Activity (MCF7 [1]) | Activity (MOLT-4 [2]) | Activity (A2780 [5]) | Activity (HeLa [6]) | Activity (SAOS-2 [7]) | Activity (PANC-1 [9]) | Activity (Jurkat [10]) | Activity (HT-29 [12]) | Activity (A549 [13])
100%: Activity (PANC-1 [3]) | Cell viability relative to control (HT-29 [4]) | Activity (A549 [8]) | Activity (Jurkat [11]) | Activity (MCF7 [14]) | Activity (HeLa [15]) | Activity (A2780 [16]) | Activity (SAOS-2 [17]) | Activity (MOLT-4 [18])

CC(C)S(=O)(=O)c1ccc(-c2cc(C(=O)Nc3ccc(N(C)C)cc3)n[nH]2)cc1
93%: Activity (PANC-1 [3]) | Cell viability relative to control (HT-29 [4]) | Activity (A549 [8]) | Activity (Jurkat [11]) | Activity (MCF7 [14]) | Activity (HeLa [15]) | Activity (A2780 [16]) | Activity (SAOS-2 [17]) | Activity (MOLT-4 [18])
65%: Activity (MCF7 [1]) | Activity (MOLT-4 [2]) | Activity (A2780 [5]) | Activity (HeLa [6]) | Activity (SAOS-2 [7]) | Activity (PANC-1 [9]) | Activity (Jurkat [10]) | Activity (HT-29 [12]) | Activity (A549 [13])

CC(C)S(=O)(=O)c1ccc(-c2cnc3[nH]nc(C(=O)N4CCc5ccccc5C4)c3c2)cc1
96%: Activity (PANC-1 [3]) | Cell viability relative to control (HT-29 [4]) | Activity (A549 [8]) | Activity (Jurkat [11]) | Activity (MCF7 [14]) | Activity (HeLa [15]) | Activity (A2780 [16]) | Activity (SAOS-2 [17]) | Activity (MOLT-4 [18])
61%: Activity (MCF7 [1]) | Activity (MOLT-4 [2]) | Activity (A2780 [5]) | Activity (HeLa [6]) | Activity (SAOS-2 [7]) | Activity (PANC-1 [9]) | Activity (Jurkat [10]) | Activity (HT-29 [12]) | Activity (A549 [13])

CCN1CCN(C(=O)c2cc3cc(-c4ccc(S(C)(=O)=O)cc4)cnc3[nH]2)CC1
90%: Activity (PANC-1 [3]) | Cell viability relative to control (HT-29 [4]) | Activity (A549 [8]) | Activity (Jurkat [11]) | Activity (MCF7 [14]) | Activity (HeLa [15]) | Activity (A2780 [16]) | Activity (SAOS-2 [17]) | Activity (MOLT-4 [18])
58%: Activity (MCF7 [1]) | Activity (MOLT-4 [2]) | Activity (A2780 [5]) | Activity (HeLa [6]) | Activity (SAOS-2 [7]) | Activity (PANC-1 [9]) | Activity (Jurkat [10]) | Activity (HT-29 [12]) | Activity (A549 [13])

CS(=O)(=O)c1ccc(-c2cnc3[nH]c(C(=O)NCc4ccccc4)cc3c2)cc1
100%: Activity (PANC-1 [3]) | Cell viability relative to control (HT-29 [4]) | Activity (A549 [8]) | Activity (Jurkat [11]) | Activity (MCF7 [14]) | Activity (HeLa [15]) | Activity (A2780 [16]) | Activity (SAOS-2 [17]) | Activity (MOLT-4 [18])
72%: Activity (MCF7 [1]) | Activity (MOLT-4 [2]) | Activity (A2780 [5]) | Activity (HeLa [6]) | Activity (SAOS-2 [7]) | Activity (PANC-1 [9]) | Activity (Jurkat [10]) | Activity (HT-29 [12]) | Activity (A549 [13])

CCN1CCN(Cc2c[nH]c3ncc(-c4ccc(S(=O)(=O)C(C)C)cc4)cc23)CC1
97%: Activity (PANC-1 [3]) | Cell viability relative to control (HT-29 [4]) | Activity (A549 [8]) | Activity (Jurkat [11]) | Activity (MCF7 [14]) | Activity (HeLa [15]) | Activity (A2780 [16]) | Activity (SAOS-2 [17]) | Activity (MOLT-4 [18])
65%: Activity (MCF7 [1]) | Activity (MOLT-4 [2]) | Activity (A2780 [5]) | Activity (HeLa [6]) | Activity (SAOS-2 [7]) | Activity (PANC-1 [9]) | Activity (Jurkat [10]) | Activity (HT-29 [12]) | Activity (A549 [13])

CS(=O)(=O)c1ccc(-c2cnc(N)c(C(=O)Nc3ccccc3)n2)cc1
66%: Activity (PANC-1 [3]) | Cell viability relative to control (HT-29 [4]) | Activity (A549 [8]) | Activity (Jurkat [11]) | Activity (MCF7 [14]) | Activity (HeLa [15]) | Activity (A2780 [16]) | Activity (SAOS-2 [17]) | Activity (MOLT-4 [18])
16%: Activity (MCF7 [1]) | Activity (MOLT-4 [2]) | Activity (A2780 [5]) | Activity (HeLa [6]) | Activity (SAOS-2 [7]) | Activity (PANC-1 [9]) | Activity (Jurkat [10]) | Activity (HT-29 [12]) | Activity (A549 [13])

CC(C)S(=O)(=O)c1ccc(-c2cnc3[nH]cc(C(=O)NCc4ccccc4)c3c2)cc1
83%: Activity (PANC-1 [3]) | Cell viability relative to control (HT-29 [4]) | Activity (A549 [8]) | Activity (Jurkat [11]) | Activity (MCF7 [14]) | Activity (HeLa [15]) | Activity (A2780 [16]) | Activity (SAOS-2 [17]) | Activity (MOLT-4 [18])
65%: Activity (MCF7 [1]) | Activity (MOLT-4 [2]) | Activity (A2780 [5]) | Activity (HeLa [6]) | Activity (SAOS-2 [7]) | Activity (PANC-1 [9]) | Activity (Jurkat [10]) | Activity (HT-29 [12]) | Activity (A549 [13])
